In ChEMBL document CHEMBL1134457, “Medicinal chemistry of neuronal voltage-gated sodium channel blockers” (J Med Chem, 2001):

Columns and labels:
[1] = Inhibition of veratridine-induced guanidine flux in cardiac voltage-gated sodium channel (veratridine block vs. Na release); assay type: functional, tissue-based, Rattus norvegicus, Heart
[2] = Inhibition of [3H]BTX binding to cardiac voltage-gated sodium channel; parameters: species or system Rattus norvegicus
[3] = system: Rattus norvegicus; assay: In vivo anticonvulsant activity to prevent seizures from maximum electroshock (MES) […]; assay type: functional
[4] = In vivo toxic dose in rotarod assay; assay type: ADME, organism-based; conditions: rat
[5] = organism: Rattus norvegicus; assay: Neuroprotective activity was determined in the rat middle cerebral artery occlusion (MCAO) model of focal stroke; assay type: functional; conditions: read-out: MED
[6] = Potency against voltage-gated calcium channel [45[Ca2+]]; assay type: functional
[7] = biological target: GABA-A receptor; anion channel; assay: Anticonvulsant activity against gamma-aminobutyric acid receptor; assay type: functional
[8] = system: Rattus norvegicus; assay: In vivo anticonvulsant activity to prevent seizures from maximum electroshock (MES) […] after (i.v.) administration; assay type: functional; conditions: iv
[9] = system: Gerbillinae; assay: Neuroprotective activity was determined in the rat middle cerebral artery occlusion (MCAO) model of focal stroke in gerbil; assay type: functional; conditions: read-out: MED
[10] = organism: Rattus norvegicus; assay: Minimum effective dose (MED) was determined in the rat middle cerebral artery occlusion (MCAO) model of focal stroke […]; assay type: functional; conditions: read-out: MED
[11] = organism: Rattus norvegicus; assay: Minimum effective dose was determined in the rat middle cerebral artery occlusion (MCAO) model of focal stroke […]; assay type: functional; conditions: read-out: MED
[12] = Effective dose was determined after intraperitoneal administration in the MES model; assay type: functional; conditions: Rattus norvegicus, ip
[13] = organism: Rattus norvegicus; assay: Neuroprotective activity was determined in the rat middle cerebral artery occlusion (MCAO) model of focal stroke using rotarod assay; assay type: functional; conditions: read-out: MED
[14] = Inhibition of [3H]-BTX binding to cardiac voltage-gated sodium channel; assay type: functional, Rattus norvegicus

In the case of CC1CCCC(C)N1CCCNC(=O)C(c1ccccc1)c1ccccc1 (stereo unspecified), the IC50 [1] is reported as 5000 nM and the IC50 [2] is reported as 46 nM.
Work on Cc1cccc(C)c1OCC(C)N (stereo unspecified) [MEXILETINE] yielded an ED50 [3] of 2 mg/kg.
With COC(=O)[C@@H]1C(=O)C=C(Nc2ccc(Cl)cc2)C[C@H]1C the TD50 [4] was 255 mg/kg and the ED50 [3] was 26.2 mg/kg.
In the case of CC(NCc1ccc(OCc2cccc(F)c2)cc1)C(N)=O (stereo unspecified), the ED50 [3] is reported as 4.1 mg/kg.
In the case of NC(=O)N1c2ccccc2C=Cc2ccccc21 [CARBAMAZEPINE], the minimal effective dose [5] is reported as 2 mg/kg, the TD50 [4] is reported as 27.4 mg/kg and the IC50 [1] is reported as 30000 nM. The IC50 [2] was 131000 nM and the ED50 [3] was 3.4 mg/kg.
COc1ccccc1OCCNCC(O)COc1cccc2[nH]c3ccccc3c12 (stereo unspecified) [CARVEDILOL] showed an IC50 [1] of 306 nM and an IC50 [2] of 1700 nM.
Molecule Cc1cccc(C)c1NC(=O)c1ccc(N)cc1 [AMELTOLIDE] has an ED50 [3] of 13 mg/kg.
In the case of NS(=O)(=O)Cc1noc2ccccc12 [ZONISAMIDE], the minimal effective dose [5] is reported as 100 mg/kg.
Work on Nc1cnc(-c2cc(Cl)cc(Cl)c2Cl)c(N)n1 [ELPETRIGINE] yielded a TD50 [4] of 18.8 mg/kg and an ED50 [3] of 1.13 mg/kg.
In the case of Cc1ccc(-c2nc(C)c(CN3CCN(C(c4ccc(F)cc4)c4ccc(F)cc4)CC3)[nH]2)cc1, the IC50 [1] is reported as 300 nM and the IC50 [2] is reported as 119 nM.
Molecule Cc1cccc(C)c1NC(=O)/C=C1/SCC(=O)N1C has an IC50 [2] of 25000 nM and an ED50 [3] of 2.8 mg/kg.
CCC(C)c1ccc(N2CCCN(c3ccc(C(C)CC)cc3)C2=N)cc1 (stereo unspecified) showed an IC50 [1] of 60 nM and an IC50 [6] of 390 nM.
Work on CCN(CC)CC(=O)Nc1c(C)cccc1C [LIDOCAINE] yielded a TD50 [4] of 41 mg/kg, an IC50 [1] of 97000 nM and an IC50 [2] of 113000 nM. It also gave an ED50 [3] of 87 mg/kg.
In the case of COc1ccc(CN2CCN(C(c3ccc(F)cc3)c3ccc(F)cc3)CC2)c(OC)c1OC [LOMERIZINE], the IC50 [2] is reported as 26 nM.
For Cc1cccc(C)c1NC(=O)Nc1ccncc1, the IC50 [2] was 29000 nM.
With Nc1nnc(-c2cccc(Cl)c2Cl)c(N)n1 [LAMOTRIGINE] the minimal effective dose [5] was 20 mg/kg, the TD50 [4] was 84 mg/kg and the IC50 [1] was 21000 nM. For the same molecule, the IC50 [2] was 114000 nM and the ED50 [3] was 2.2 mg/kg.
Work on NC(=O)C12NC(Cc3ccccc31)c1ccccc12 (stereo unspecified) yielded an ED50 [3] of 8.9 mg/kg.
Work on CCC1(Cc2ccccc2)CCCNC1=O (stereo unspecified) yielded an IC50 [7] of 487000 nM.
CN(C)CCOc1ccccc1-c1nc(-c2ccccc2)no1 gave an ED50 [3] of 2.8 mg/kg.
OC(COc1ccccc1)CN1CCC(c2ccc(Oc3ccccc3)cc2)CC1 (stereo unspecified) gave a minimal effective dose [5] of 3 mg/kg and an IC50 [1] of 220 nM.
With CCCN(c1ccncc1)n1ccc2ccccc21 [BESIPIRDINE] the IC50 [1] was 30000 nM and the IC50 [2] was 5500 nM.
O=C1NC(=O)C(c2ccccc2)(c2ccccc2)N1 [PHENYTOIN] showed a minimal effective dose [5] of 200 mg/kg, an ED50 [8] of 10 mg/kg and an IC50 [1] of 21000 nM. It also gave an IC50 [2] of 40000 nM.
In the case of NC(=O)NNCc1ccc(Oc2ccc(F)cc2)cc1, the ED50 [3] is reported as 4.2 mg/kg.
Molecule COc1ccc(/N=C(\N)Nc2ccc3c4c(cccc24)CC3)c2ccccc12 has a minimal effective dose [9] of 30 mg/kg and an IC50 [1] of 1640 nM.
With CCOc1ccccc1OCCN1CCC2(CC)c3cccc(O)c3CC1C2(C)C (stereo unspecified) the minimal effective dose [5] was 2 mg/kg.
In the case of C[C@H](C(N)=O)N1CCC23CCCC[C@@H]2[C@@H]1Cc1ccc(OCc2cccc(F)c2)cc13 (single isomer, unassigned), the ED50 [3] is reported as 18.1 mg/kg.
COc1ccc(CCN(C)CCCC(C#N)(c2ccc(OC)c(OC)c2)C(C)C)cc1OC (stereo unspecified) showed an IC50 [1] of 2500 nM and an IC50 [2] of 2500 nM.
For Cc1cccc(C)c1N1C(=O)c2ccc(N)cc2C1=O, the IC50 [2] was 110 nM.
Work on CC(Cc1ccccc1)(NC(=O)CN)c1ccccc1 (stereo unspecified) [REMACEMIDE] yielded a minimal effective dose [5] of 10 mg/kg and a minimal effective dose [10] of 100 mg/kg.
Molecule CN1CCN(c2ncc(-c3cc(Cl)cc(Cl)c3Cl)c(N)n2)CC1 [SIPATRIGINE] has a minimal effective dose [5] of 30 mg/kg, a minimal effective dose [11] of 60 mg/kg and an IC50 [1] of 5300 nM.
For CN(c1nc2ccccc2s1)C1CCN(C[C@H](O)COc2ccc(F)c(F)c2)CC1 [LUBELUZOLE], the minimal effective dose [5] was 0.3 mg/kg and the IC50 [2] was 280 nM.
In the case of Nc1ncc(-c2cc(Cl)cc(Cl)c2Cl)c(N)n1, the minimal effective dose [5] is reported as 20 mg/kg and the IC50 [1] is reported as 1600 nM.
Molecule Nc1ncnnc1-c1cc(Cl)cc(Cl)c1Cl has a TD50 [4] of 40 mg/kg and an ED50 [3] of 1.7 mg/kg.
With Clc1ccc(-c2c[nH]nc2N2CCOCC2)cc1 the ED50 [12] was 47 mg/kg.
For Nc1nccc2c1nnn2Cc1c(F)cccc1F, the ED50 [3] was 6.3 mg/kg.
For Nc1nc2ccc(OC(F)(F)F)cc2s1 [RILUZOLE], the minimal effective dose [5] was 4 mg/kg, the IC50 [1] was 4000 nM and the minimal effective dose [13] was 30 mg/kg.
In the case of COC(=O)c1[nH]cc(-c2ccc(Br)cc2)c1N1CCOCC1, the TD50 [4] is reported as > 500 mg/kg and the ED50 [3] is reported as 2.5 mg/kg.
NC1CCc2c(-c3ccccc3)[nH]c3cccc1c23 (stereo unspecified) gave an IC50 [1] of 4100 nM and an IC50 [2] of 1100 nM.
Cc1nc(OCCCCCN2CCCCC2)cc(-c2ccc(F)cc2)n1 [ENECADIN] showed a minimal effective dose [5] of 0.5 mg/kg, an IC50 [14] of 1000 nM and an IC50 [1] of 7700 nM.
In the case of Fc1ccc(C(c2ccc(F)cc2)N2CCN(C/C=C/c3ccccc3)CC2)cc1 [FLUNARIZINE], the IC50 [1] is reported as 120 nM and the IC50 [2] is reported as 350 nM.
Work on CC1(C)O[C@@H]2[C@@H](CO[C@@]3(COS(N)(=O)=O)OC(C)(C)O[C@@H]23)O1 [TOPIRAMATE] yielded an ED50 [3] of 39 mg/kg.
N=c1sc2ccccc2n1CCN1CCC(c2ccc(F)cc2)CC1 showed a minimal effective dose [5] of 16 mg/kg and an ED50 [3] of 3.9 mg/kg.
